{"source": "patent US20200305437A1", "about": "“SYNERGISTIC ANTIMICROBIAL COMBINATIONS CONTAINING QUATERNARY AMMONIUM BIOCIDE” (LONZA, LLC, priority 2016, published 2020)", "assay_in_all_cases": "Minimum inhibitory concentration, microtitre plate doubling dilutions", "type_in_all_cases": "cell-based", "key": {"Escherichia coli": {"system": "Escherichia coli", "settings": "for MIC versus organism E.c: biocide alone, visual growth after 24 hours at 37° C.", "method": "(§1) Bacteria were grown to stationary phase (18 h) in nutrient broth (approximately 10^9 organisms per ml). A 0.1% (v/v) inoculum was used to seed fresh medium and 100 μl of this was added to each well of a microtitre plate, except for the first well which contained 200 μl. Using doubling dilutions, the concentration of each antimicrobial was varied in each well along the ordinate axis. The presence or absence of growth was determined by visual inspection after 24 hours incubation at 37° C."}, "Pseudomonas aeruginosa": {"system": "Pseudomonas aeruginosa", "settings": "for MIC versus organism Ps.a: biocide alone, visual growth after 24 hours at 37° C.", "method": "as §1"}, "Staphylococcus aureus": {"system": "Staphylococcus aureus", "settings": "for MIC versus organism S.a: biocide alone, visual growth after 24 hours at 37° C.", "method": "as §1"}}}
{"compound": "CCCCCCCCCC[N+](C)(C)CCCCCCCCCC.[Cl-]", "note": "[Bardac 22.70, Didecyldimethyl ammonium chloride]", "values": [{"measurement": "MIC", "setting": "Escherichia coli; Escherichia coli, 24 h, read-out: MIC versus organism E.c", "value": 4, "unit": "µg/mL"}, {"measurement": "MIC", "setting": "Pseudomonas aeruginosa; Pseudomonas aeruginosa, 24 h, read-out: MIC versus organism Ps.a", "value": 8, "unit": "µg/mL"}, {"measurement": "MIC", "setting": "Staphylococcus aureus; Staphylococcus aureus, 24 h, read-out: MIC versus organism S.a", "value": 1, "unit": "µg/mL"}]}
{"compound": "CCCCCCCCCCCCN(CCCN)CCCN", "note": "[Lonzabac 12.30, N-3-aminopropyl-N-dodecylpropane-1-3-diamine]", "values": [{"measurement": "MIC versus organism E.c", "setting": "Escherichia coli", "value": 16, "unit": "ppm"}, {"measurement": "MIC versus organism Ps.a", "setting": "Pseudomonas aeruginosa", "value": 32, "unit": "ppm"}, {"measurement": "MIC versus organism S.a", "setting": "Staphylococcus aureus", "value": 8, "unit": "ppm"}]}
{"compound": "[Na+].[O-][n+]1ccccc1[S-]", "note": "[Sodium Omadine, Na pyrithione]", "values": [{"measurement": "MIC versus organism E.c", "setting": "Escherichia coli", "value": 500, "unit": "ppm"}, {"measurement": "MIC versus organism Ps.a", "setting": "Pseudomonas aeruginosa", "value": 16, "unit": "ppm"}, {"measurement": "MIC versus organism S.a", "setting": "Staphylococcus aureus", "value": 1, "unit": "ppm"}]}
{"compound": "Alkyldimethylbenzylammonium chloride [Barquat 4214]", "values": [{"measurement": "MIC versus organism E.c", "setting": "Escherichia coli", "value": 8, "unit": "ppm"}, {"measurement": "MIC versus organism Ps.a", "setting": "Pseudomonas aeruginosa", "value": 32, "unit": "ppm"}, {"measurement": "MIC versus organism S.a", "setting": "Staphylococcus aureus", "value": 2, "unit": "ppm"}]}
{"compound": "Benzyl C12-16 alkyl dimethyl chlorides [Barquat DM-80]", "values": [{"measurement": "MIC versus organism E.c", "setting": "Escherichia coli", "value": 12, "unit": "ppm"}, {"measurement": "MIC versus organism Ps.a", "setting": "Pseudomonas aeruginosa", "value": 32, "unit": "ppm"}, {"measurement": "MIC versus organism S.a", "setting": "Staphylococcus aureus", "value": 2, "unit": "ppm"}]}
{"compound": "Didecyl dimethyl ammonium carbonate/bicarbonate [Carboquat HE]", "values": [{"measurement": "MIC versus organism E.c", "setting": "Escherichia coli", "value": 4, "unit": "ppm"}, {"measurement": "MIC versus organism Ps.a", "setting": "Pseudomonas aeruginosa", "value": 8, "unit": "ppm"}, {"measurement": "MIC versus organism S.a", "setting": "Staphylococcus aureus", "value": 1, "unit": "ppm"}]}
{"compound": "N,N-Didecyl-N-methyl-poly(oxyethyl)ammonium propionate [Bardap 26]", "values": [{"measurement": "MIC versus organism E.c", "setting": "Escherichia coli", "value": 4, "unit": "ppm"}, {"measurement": "MIC versus organism Ps.a", "setting": "Pseudomonas aeruginosa", "value": 16, "unit": "ppm"}, {"measurement": "MIC versus organism S.a", "setting": "Staphylococcus aureus", "value": 1, "unit": "ppm"}]}
